Results: patent US12560609B2, “Biomarkers predictive of cancer cell response to ML329 or a derivative thereof” (Dana-Farber Cancer Institute, Inc., priority 2018, dated 2026)

Key:
[1] = biological target: CK2 (Homo sapiens, UniProt P68400); test: CK2 activity in vitro, with or without Nqo1; format: biochemical; conditions: for requirement of Nqo1 for inhibition of CK2 in vitro: FIG. 24E, 24F
[2] = biological target: T1, CK2 (Homo sapiens, UniProt P19784+P68400); test: SAR of ML329 derivatives: NQO1-dependent CK2 inhibitors; format: cell-based; conditions: FIG. 21
T1 construct: endogenous in cells

[3] = tested on: CK2alpha and CK2alpha prime; test: Target identification: bead pull-down from SK-MEL-5 lysate with ML329 competition, mass spectrometry; format: binding
Description: Whole protein lysates were generated from SK-MEL-5 melanoma cells and mixed with either KUC114363 (a derivative of ML329 conjugated to agarose beads) or KUC114363 along with competing amounts of soluble ML329. Mass spectrometry was used to identify proteins that bound KUC114363 whose binding was diminished upon treatment with ML329. […] Kinases found to bound are marked with red circles, where larger circles indicate higher-affinity binding. KINOMEScan image was generated using TREEspot™ Software Tool and reprinted with permission from KINOMEscan®, a division of DiscoveRx Corporation, © DISCOVERX CORPORATION 2010.

[4] = tested on: WM266.4 cells; test: WM266.4 melanoma xenograft, tumor volume; format: in vivo; conditions: NSG mice xenografted with WM266.4 cells; 10 mg/kg twice daily
[5] = tested on: 489 cancer cell lines; test: PRISM viability screen of 489 cancer cell lines; format: cell-based; conditions: 489 cell lines, FIG. 30
Method: Negative odds are associated with sensitivity to ML329 whereas positive odds are associated with insensitivity to ML329.
Strictly Standardized Mean Difference (SSMD) was determined for each cell line. Cell lines with SSMD<2 were filtered out. All cell lines tested had SSMD>2.

[6] = tested on: MITF; test: qPCR of MITF mRNA and MITF target genes; format: cell-based; conditions: FIG. 22
Description: FIG. 26A-FIG. 26H show the results of a small molecule screen to identify regulators of lineage-specific melanoma oncogene MITF. […] SK-MEL-5 cells stably expressing the TRPM1 promoter fused to the luciferase gene were screened with 331,578 compounds. Secondary screens of putative hits including evaluating cytotoxicity in 2 MITF-dependent cell lines (SK-MEL-5, MALME) and 1 MITF-independent cell line (A375M) and evaluation the effect of candidate hits on the mRNA of MITF and target genes. […] BRD-K45681478 was the lead hit, which was modified by structure-function analysis to generate the compound ML329. FIG. 26B show cell number after 48 h treatment of melanoma cell lines (red) compared to non-melanoma cell lines (black) with ML329. […] MITF-dependent cell lines are depicted in green, whereas the MITF-independent cell line is depicted in red.
ML329 (4-[(1,4-dioxo-1,4-dihydronapthalen-2-yl)amino]benzenesulfonamide; KUC114363) is a small molecule that was initially identified as an inhibitor of microphthalmia-associated transcription factor (MITF) (FIGS. 1-6). Briefly, Sk-MEL-5 melanoma cells expressing the promoter of MITF target TRPM1, upstreatm of a luciferase gene, were screened with a library of 331,578 compounds. […] Greater than 90% of KEAP1-mutant lung cancers were determined to be sensitive to ML329 (FIG. 20).

[7] = tested on: KEAP1-mutant lung cancer cells; test: Sensitivity of wild-type and KEAP1-mutated lung cancer cell lines to ML329; format: cell-based; conditions: sensitive cell lines had IC50<10 μM (FIG. 35B)
Method: ML329 (4-[(1,4-dioxo-1,4-dihydronapthalen-2-yl)amino]benzenesulfonamide; […]) is a small molecule that was initially identified as an inhibitor of microphthalmia-associated transcription factor (MITF) (FIGS. 1-6). Briefly, Sk-MEL-5 melanoma cells expressing the promoter of MITF target TRPM1, upstreatm of a luciferase gene, were screened with a library of 331,578 compounds. Secondary screening was performed in two MITF-dependent melanoma cell links (SK-MEL-5 and MALME) and one non-MITF dependent cell line (A375). Candidate hits were tested for their effects on MITF target genes by qPCR. BRD-K45681478 was prioritized for medicinal chemistry. The lead compounds ML329 was used in subsequent studies. […] CK2 is an essential kinase and its reduction/inhibition is lethal (FIG. 11 and FIG. 12). Experiments were performed to determine that ML329 is bioreduced by an enzyme called NQO1, which is preferentially expressed in some cancer types, especially melanoma (FIGS. 13-15). Since ML329 is converted by cancer cells into an active form, it can avoid effects on normal cells. NQO1 is necessary and sufficient for the activity of ML329, thus enabling targeting of CK2 specifically to cancers with high NQO1 expression (FIGS. 16-18). […] Greater than 90% of KEAP1-mutant lung cancers were determined to be sensitive to ML329 (FIG. 20).

[8] = biological target: Nqo1 (Homo sapiens, UniProt P15559); test: Reduction of ML329 by Nqo1 in vitro; format: biochemical; conditions: FIG. 24D
Nqo1, sequence (P15559 whole entry, species assumed): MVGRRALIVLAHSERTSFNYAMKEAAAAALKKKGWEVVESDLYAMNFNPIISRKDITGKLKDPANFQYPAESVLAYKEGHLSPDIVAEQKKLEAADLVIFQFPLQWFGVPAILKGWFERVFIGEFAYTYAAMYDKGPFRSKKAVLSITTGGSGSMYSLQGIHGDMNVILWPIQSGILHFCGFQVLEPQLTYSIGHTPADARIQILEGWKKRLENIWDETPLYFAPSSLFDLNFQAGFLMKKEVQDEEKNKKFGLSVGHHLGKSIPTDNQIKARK

CK2 (Homo sapiens, UniProt P68400), sequence (P68400 whole entry): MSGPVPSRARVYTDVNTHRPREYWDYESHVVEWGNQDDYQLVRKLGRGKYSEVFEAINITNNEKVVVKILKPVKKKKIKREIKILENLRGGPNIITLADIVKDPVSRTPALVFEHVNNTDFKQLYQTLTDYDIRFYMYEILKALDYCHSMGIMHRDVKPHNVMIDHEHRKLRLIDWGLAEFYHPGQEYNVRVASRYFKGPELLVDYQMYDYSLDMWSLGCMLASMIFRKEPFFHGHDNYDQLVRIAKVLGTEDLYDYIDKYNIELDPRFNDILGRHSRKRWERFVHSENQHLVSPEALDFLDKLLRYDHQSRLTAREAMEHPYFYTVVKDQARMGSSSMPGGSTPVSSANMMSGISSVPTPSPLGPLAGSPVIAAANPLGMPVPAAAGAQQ
T1 sequence (P68400 whole entry): as above
T1 sequence (P19784 whole entry): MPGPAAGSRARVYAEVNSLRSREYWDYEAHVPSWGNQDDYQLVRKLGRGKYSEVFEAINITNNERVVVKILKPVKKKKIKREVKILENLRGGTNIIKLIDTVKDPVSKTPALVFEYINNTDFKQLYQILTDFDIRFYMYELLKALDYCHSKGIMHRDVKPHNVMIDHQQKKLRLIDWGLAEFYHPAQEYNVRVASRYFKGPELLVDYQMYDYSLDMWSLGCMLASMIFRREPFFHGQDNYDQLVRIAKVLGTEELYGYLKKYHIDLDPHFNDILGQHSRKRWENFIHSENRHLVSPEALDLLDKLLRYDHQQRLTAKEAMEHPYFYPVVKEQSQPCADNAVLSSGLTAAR
T1 sequence (P67870 whole entry partner): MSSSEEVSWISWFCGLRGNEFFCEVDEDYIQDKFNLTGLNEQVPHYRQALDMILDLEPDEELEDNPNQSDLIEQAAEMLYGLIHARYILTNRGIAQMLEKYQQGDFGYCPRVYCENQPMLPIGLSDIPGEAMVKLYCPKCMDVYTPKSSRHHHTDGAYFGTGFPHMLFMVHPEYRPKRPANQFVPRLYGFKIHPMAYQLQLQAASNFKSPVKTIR

With `O=C(O)c1ccc2c(c1)nc(Nc1cccc(Cl)c1)c1ccncc12` [CX4945, 5-[(3-Chlorophenyl)amino]benzo[c]-2,6-naphthyridine-8-carboxylic acid, reference compound] the “requirement of Nqo1 for inhibition of CK2 in vitro” value [1] was “Nqo1 is not required” and the “potency and selectivity as NQO1-dependent CK2 inhibitor (SAR, relative to ML329)” value [2] was “more potent and selective NQO1-dependent CK2 inhibitors”.
With `NS(=O)(=O)c1ccc(NC2=CC(=O)c3ccccc3C2=O)cc1` [ML329, 4-[(1,4-dioxo-1,4-dihydronapthalen-2-yl)amino]benzenesulfonamide] the “requirement of Nqo1 for inhibition of CK2 in vitro” value [1] was “Nqo1 is required”, the “inhibition of CK2 activity” value ([1]; in vitro) was “inhibits CK2 activity in an ATP-competitive manner” and the “binding to CK2 subunits in vitro” value [3] was “binds to CK2alpha and CK2alpha prime”. For the same compound, the “in vivo activity in melanoma (tumor volume)” value [4] was “has in vivo activity in melanoma that requires NRF2/NQO1”, the “selectivity of cytotoxicity across cancer cell lines” value [5] was “selectively cytotoxic in melanoma cells” and the “effect on MITF mRNA and target gene expression” value [6] was “suppresses MITF mRNA and target gene expression”. For the same compound, the “share of KEAP1-mutant lung cancers sensitive to ML329” value [7] was “Greater than 90%” and the “substrate of Nqo1 in vitro” value [8] was “direct substrate of Nqo1 in vitro”.
In the case of `NS(=O)(=O)c1cccc(NC2=CC(=O)c3ccccc3C2=O)c1` [SCAP105461], the “potency and selectivity as NQO1-dependent CK2 inhibitor (SAR, relative to ML329)” value [2] is reported as “more potent and selective NQO1-dependent CK2 inhibitors”.
With `NC(=O)c1ccc(NC2=CC(=O)c3ccccc3C2=O)cc1` [SCAP105463] the “potency and selectivity as NQO1-dependent CK2 inhibitor (SAR, relative to ML329)” value [2] was “more potent and selective NQO1-dependent CK2 inhibitors”.
